Test results from PMC12040169 (PLOS Biology, 2025).

Experiment: in vitro
Conditions: human, hela cells, % viability

Row | Compound | viability at 28.5 h, 10 µM [%]
1 | O=C(NCCn1cccn1)N1CCC(Cc2ccc(F)cc2)CC1 [CBK304381] | 91.7
2 | CCn1c(C)nnc1SCC(=O)Nc1cc(C(F)(F)F)ccc1Cl [CBK304382] | 91.7
3 | COCCN1CC(CNC(=O)c2cccc(F)c2O)CC1=O (stereo not drawn) [CBK304386] | 107
4 | O=C(NCC(c1ccco1)N1CCCC1)N1CCc2ccccc2C1 (stereo not drawn) [CBK304392] | 98.8
5 | Cn1cc(NC(=O)C2CCCN(c3ncccn3)C2)cn1 (stereo not drawn) [CBK304394] | 108
6 | CC(=O)c1cccc(NC(=O)Cn2ncc(N3CCCC3)c(Cl)c2=O)c1 [CBK304395] | 89.5
7 | Cc1cnn(C)c1CN1CCC(C(N)=O)(N2CCCCC2)CC1 [CBK304400] | 89.4
8 | CNC(=O)c1cc(NC(=O)NCC2CC(=O)N(CCOC)C2)ccc1F (stereo not drawn) [CBK304403] | 107
9 | CCOC(=O)C1CCCN(c2c(C#N)cnc3ccc(Cl)cc23)C1 (stereo not drawn) [CBK304405] | 85.8
10 | Cc1cc(C)n2nc(CC(=O)N3CCCC3c3ccccn3)nc2n1 (stereo not drawn) [CBK304408] | 90.8
11 | CCC(CC)C(=O)N1CCn2c(nnc2-c2cncc(Br)c2)C1 [CBK304409] | 96.1
12 | CC(=O)N1CCc2c(sc(NC(=O)c3ccc(C)cc3)c2C#N)C1 [CBK304411] | 52.6
13 | CCOC(=O)C1CCCN(Cc2ccc(OC)cc2)C1 (stereo not drawn) [CBK304413] | 88.3
14 | Cc1cc(C)n(CCCC(=O)NCCc2cn3ccccc3n2)n1 [CBK304414] | 94.6
15 | N#Cc1cccnc1N1CC(C(=O)O)C2(CCC2)C1 (stereo not drawn) [CBK304415] | 93.7
16 | CSCCC(NC(=O)NCCc1ccccc1)c1nnc2ccccn12 (stereo not drawn) [CBK304417] | 102
17 | CCNC(=O)N1CCC(NS(=O)(=O)c2cnc3ccccc3c2)C1 (stereo not drawn) [CBK304419] | 85.3
18 | Cc1c(C(=O)N2CCCCC2C(N)=O)nnn1Cc1ccc(F)cc1F (stereo not drawn) [CBK304425] | 93.7
19 | Cc1csc2c(N3CCCC3CC(=O)c3cnn(C)c3)ncnc12 (stereo not drawn) [CBK304429] | 81.8
20 | CCOc1cc(NC2CCN(C(=O)C(C)(C)C3CCCC3)CC2)ncn1 [CBK304430] | 91.2
21 | Cc1ccc(Cc2cnc(NC(=O)NC3CCOCC3)s2)cc1Cl [CBK304440] | 82.2
22 | CC1CCc2c(C(=O)N3CC(C)OC(C)C3)csc2C1 (stereo not drawn) [CBK304442] | 106

Row | Compound | viability at 28.5 h, 10 µM [%]
23 | CC(C)c1csc(CNC(=O)NC2CCCN(c3ccn(C)n3)C2=O)n1 (stereo not drawn) [CBK304447] | 83.6
24 | Cc1cc(C)n(CCN2CCC(N(C)Cc3nnc(C)n3C)C2)n1 (stereo not drawn) [CBK304449] | 94.3
25 | Cc1nnc(CN(C)C2CCN(Cc3ccc4c(c3)CCC4)C2)n1C (stereo not drawn) [CBK304450] | 104
26 | Cc1nc(-c2cc3c(s2)CCN(CC(O)Cn2cccn2)C3)cs1 (stereo not drawn) [CBK304458] | 102
27 | COc1csc(C(=O)Nc2ncn(CC(=O)N3CCCCCC3)n2)c1 [CBK304463] | 84.6
28 | CCCn1c(C)nnc1CN(CC1CCCO1)C1CCCC1 (stereo not drawn) [CBK304465] | 94.8
29 | Cc1cc(NC(=O)C(C)N(C)CCOc2ccccc2Cl)no1 (stereo not drawn) [CBK304466] | 107
30 | CC(=O)c1cccc(NC(=O)N(Cc2ccco2)CC2CCCO2)c1 (stereo not drawn) [CBK304467] | 104
31 | CN(CC(=O)NCc1ccco1)C1CCCCC1 [CBK304471] | 85.6
32 | CCc1nnc(CN(CC2CCCO2)C2CCC(C)CC2)n1C (stereo not drawn) [CBK304475] | 106
33 | CNCC1CCCN(C(=O)c2ccc(Oc3cccnc3)cc2)C1 (stereo not drawn) [CBK304479] | 83.2
34 | Cc1ccc(CCC(=O)N2CCNCC2C)c(C)c1 (stereo not drawn) [CBK304481] | 90
35 | Cc1c(C(=O)N2CCC(F)(CO)C2)nnn1-c1ccc2ncccc2c1 (stereo not drawn) [CBK304483] | 101
36 | Cc1c(C(=O)N(C)Cc2csc(Br)c2)nnn1C1CCNCC1 [CBK304491] | 104
37 | COc1ccc(C)cc1C1(CNC(=O)C2CC2C(=O)O)CCOCC1 (stereo not drawn) [CBK304492] | 82
38 | Cn1ccc(CN2CCOC(c3nc(C(C)(C)C)n[nH]3)C2)cc1=O (stereo not drawn) [CBK304495] | 84.5
39 | CC(C)Oc1ccc(C(=O)N2CC(C)C(N3CCOCC3)C2)cn1 (stereo not drawn) [CBK304497] | 110
40 | CCc1nsc(N2CCC(Oc3cccnc3N(C)C)C2)n1 (stereo not drawn) [CBK304498] | 110
41 | Cc1cc(S(=O)(=O)NC(=O)CC2CCOc3ccccc32)c(C)o1 (stereo not drawn) [CBK304499] | 105
42 | CNCC1CCCN1S(=O)(=O)c1ccc(OCc2ncnn2C)cc1 (stereo not drawn) [CBK304500] | 90
43 | CCn1cc(NC(=O)CC(C)(O)c2ccccc2)ccc1=O (stereo not drawn) [CBK304507] | 91.7
44 | CCc1nn(C)cc1CN1CCOC(c2nc(C(C)(C)C)cs2)C1 (stereo not drawn) [CBK304513] | 104

Row | Compound | viability at 28.5 h, 10 µM [%]
45 | CCOC(=O)C1CCCN(C(=O)CCn2c(=O)oc3cc(Cl)ccc32)C1 (stereo not drawn) [CBK304516] | 93.8
46 | NC(=O)C1CCN(C(=O)Cc2csc(COc3ccc(Cl)cc3)n2)CC1 [CBK304519] | 81.9
47 | Cc1cc(NC(=O)CS(=O)(=O)Cc2cccc(C(F)(F)F)c2)no1 [CBK304520] | 99.3
48 | CC(C)(C)OC(=O)N1CCCC(C(=O)Nc2ccccn2)C1 (stereo not drawn) [CBK304524] | 95.4
49 | CC(C)(C)c1cc(NC(=O)CN2CCN(c3cccc(Cl)c3)CC2)on1 [CBK304525] | 85.7
50 | CCOc1ncccc1C(=O)NCc1ccc(COCC(F)(F)F)cc1 [CBK304526] | 97.8
51 | CCOc1ccc(CN2CCN(C(=O)c3cccc(C#N)c3)CC2)cc1 [CBK304527] | 93.5
52 | Cc1ccnc2nc(C(=O)OC(C)C(=O)c3ccc4c(c3)CCC4)nn12 (stereo not drawn) [CBK304528] | 89.5
53 | COc1ccccc1-c1cnn2c(NCC3CCCO3)cc(C)nc12 (stereo not drawn) [CBK304529] | 84.5
54 | COc1ccccc1-c1cc2nc(C)cc(N3CCOCC3)n2n1 [CBK304532] | 88.7
55 | O=C(CCSCc1nc2sc3c(c2c(=O)[nH]1)CCC3)N1CCC1 [CBK304536] | 75.7
56 | COC(=O)CC(NC(=O)c1cccc(NC(C)=O)c1)c1cccs1 (stereo not drawn) [CBK304537] | 78
57 | CC(=O)Nc1ccc(CNC(=O)c2ccc[nH]2)cc1 [CBK304538] | 87.1
58 | CCCCN(CC(N)=O)C(=O)c1sc(COc2ccc(Cl)cc2)nc1C [CBK304539] | 101
59 | Cc1nc(Cc2nc(-c3ccc4c(c3)CCCN4S(C)(=O)=O)cs2)cs1 [CBK304542] | 97.3
60 | CCCCN(C)S(=O)(=O)NCCc1cn2ccccc2n1 [CBK304543] | 101
61 | CC(N(C)S(=O)(=O)c1ccc(-n2ncc(Cl)c(Cl)c2=O)cc1)C(C)(C)C (stereo not drawn) [CBK304544] | 73.9
62 | NC(=O)NC(CC(=O)N1CCN(c2nccs2)CC1)c1cccc(Br)c1 (stereo not drawn) [CBK304548] | 90.6
63 | CC(=O)Nc1ccc(OCC(O)Cn2c(CO)nc3ccccc32)cc1 (stereo not drawn) [CBK304549] | 81.3
64 | CCOC(=O)C1CSCCN1C(=O)c1cnn(-c2ccc(Br)cc2)c1C (stereo not drawn) [CBK304550] | 102
65 | CCOC(=O)Cc1csc(SC(C)C(=O)N2CCNC2=O)n1 (stereo not drawn) [CBK304551] | 106
66 | O=C(NCCNc1cnccn1)c1cc(F)cc(Br)c1 [CBK304554] | 99.6
